In PubChem BioAssay (NCI) one finds GI50 and TGI data, which are given here for eight compounds.

“And” between values parts separate entries of the source, which are not always exact repeats. Equal entries are not always repeated.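 A five-concentration, 48-hour dose response in 96-well plates underlies each endpoint, interpolated linearly between surrounding concentrations. Here, GI50 denotes the concentration required for 50% inhibition of growth. Definition used: TGI = concentration required for complete inhibition of growth.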

Some test systems named below: HCT-116 colon; SNB-19 CNS; UACC-62 melanoma; U251 CNS; BT-549 breast; NCI/ADR-RES ovarian; NCI-H522 lung; IGROV1 ovarian; SF-268 CNS; MOLT-4 leukemia.
What all share (assay): growth of human tumour cells (NCI), 48 h

With `CN1CCN(c2nc(NCCCCNc3ccnc4cc(Cl)ccc34)c3ccccc3n2)CC1`, the GI50 is 2.58 µM in the experiment with HCT-116 colon; 4.28 µM in the experiment with SNB-19 CNS; 1.96 µM in the experiment with UACC-62 melanoma; 3.27 µM in the experiment on U251 CNS; 3.45 µM in the experiment with BT-549 breast; 19 µM in the experiment with NCI/ADR-RES ovarian. The GI50 was 2.82 µM with NCI-H522 lung, 3.49 µM in the experiment with IGROV1 ovarian, 10.7 µM with SF-268 CNS and 3.08 µM in the experiment on MOLT-4 leukemia. Besides, the TGI was determined as 11.7 µM with HCT-116 colon; 20.8 µM with SNB-19 CNS; 3.9 µM in the experiment on UACC-62 melanoma; 10.1 µM with U251 CNS; 15 µM in the experiment on BT-549 breast; 56.1 µM in the experiment on NCI/ADR-RES ovarian. Besides, the TGI in the experiment on NCI-H522 lung turned out to be 9.32 µM; in the experiment with IGROV1 ovarian, 19 µM; in the experiment on SF-268 CNS, 33.9 µM; with MOLT-4 leukemia, 20 µM.
Take `COc1ccn2c(C(C)=O)cc(C(=O)c3ccc4c(c3)Sc3ccccc3N4)c2c1`: the GI50 in the experiment with HCT-116 colon was 0.0674 µM; with SNB-19 CNS it was 0.158 µM; with UACC-62 melanoma it was 0.0894 µM; in the experiment with U251 CNS, 0.132 µM; with BT-549 breast, 0.134 µM; in the experiment on NCI/ADR-RES ovarian, 0.0547 µM. For the same compound, the GI50 with NCI-H522 lung was 0.0321 µM; in the experiment with IGROV1 ovarian, 0.164 µM; in the experiment on SF-268 CNS, 0.141 µM; with MOLT-4 leukemia it was 0.155 µM. In addition, the TGI with HCT-116 colon is 4.93 µM; in the experiment with SNB-19 CNS it was more than 100 µM; with UACC-62 melanoma, more than 100 µM; in the experiment with U251 CNS it was more than 100 µM; in the experiment on BT-549 breast it was more than 100 µM; in the experiment with NCI-H522 lung it was 0.248 µM. Moreover, the TGI in the experiment on IGROV1 ovarian, with SF-268 CNS and in the experiment on MOLT-4 leukemia was more than 100 µM each time.
Consider `O=C1/C(=C/c2ccccc2F)CNC/C1=C\c1ccccc1F`, for which the GI50 was 0.224 µM and 0.177 µM in the experiment on HCT-116 colon; 0.643 µM and 1.01 µM in the experiment with SNB-19 CNS; 6.38 µM and 1.5 µM with UACC-62 melanoma; 0.165 µM with U251 CNS; 0.434 µM and 0.782 µM in the experiment with BT-549 breast; 0.665 µM and 0.699 µM in the experiment on NCI/ADR-RES ovarian. Also, the GI50 with NCI-H522 lung was 0.772 µM and 1.3 µM; with IGROV1 ovarian, 0.809 µM and 1.2 µM; with SF-268 CNS, 0.62 µM and 0.309 µM; in the experiment with MOLT-4 leukemia, 0.425 µM and 0.738 µM. The TGI with HCT-116 colon was 0.549 µM and 0.341 µM; in the experiment on SNB-19 CNS it was 2.66 µM and 3.99 µM; with UACC-62 melanoma, 10.3 µM and 3.72 µM; in the experiment with U251 CNS it was 0.362 µM and 0.372 µM; in the experiment with BT-549 breast, 1.43 µM and 2.25 µM; with NCI/ADR-RES ovarian, 6.57 µM and 12.8 µM. Besides, the TGI with NCI-H522 lung is 2.73 µM and 2.8 µM; in the experiment on IGROV1 ovarian, 2.49 µM and 3.19 µM; in the experiment with SF-268 CNS, 5.37 µM and 1.21 µM; in the experiment with MOLT-4 leukemia it was 1.76 µM and 3.13 µM.
On to `COc1cc2c3c(n(CCCNCC(OC)OC)c(=O)c2cc1OC)-c1cc2c(cc1C3=O)OCO2`, for which the GI50 in the experiment with HCT-116 colon was 0.0172 µM; in the experiment on SNB-19 CNS it was 10.2 µM; in the experiment on UACC-62 melanoma it was 1.63 µM; in the experiment with U251 CNS, 4.32 µM; in the experiment on BT-549 breast, 4.06 µM; in the experiment on NCI/ADR-RES ovarian, 0.338 µM. For the same compound, the GI50 in the experiment with NCI-H522 lung was 18.2 µM; in the experiment with IGROV1 ovarian, 10.3 µM; in the experiment on SF-268 CNS, 1.05 µM; in the experiment with MOLT-4 leukemia, less than 0.01 µM. The TGI in the experiment with HCT-116 colon was 1.31 µM; with SNB-19 CNS, more than 100 µM; with UACC-62 melanoma, 22.6 µM; in the experiment with U251 CNS, more than 48.6 µM; in the experiment with BT-549 breast, more than 29.6 µM; in the experiment with NCI/ADR-RES ovarian, 29.3 µM. For the same compound, the TGI with NCI-H522 lung was more than 100 µM; with IGROV1 ovarian, more than 74.4 µM; in the experiment on SF-268 CNS, more than 55.1 µM; in the experiment with MOLT-4 leukemia, 1.14 µM.
For the compound `COC(=O)c1cc(-c2cc(OC)c(OC)c(OC)c2)[nH]c1N/N=C/c1c(Cl)cccc1Cl`, the GI50 with HCT-116 colon was 1.11 µM; in the experiment on SNB-19 CNS, 3.37 µM; in the experiment on UACC-62 melanoma, 1.47 µM; in the experiment with U251 CNS, 2.17 µM; in the experiment with BT-549 breast, 2.74 µM; in the experiment on NCI/ADR-RES ovarian, 1.46 µM. The GI50 is 3.39 µM in the experiment with NCI-H522 lung, 2.48 µM with IGROV1 ovarian, 1.35 µM in the experiment with SF-268 CNS and 9.27 µM with MOLT-4 leukemia. The TGI was more than 33 µM with HCT-116 colon; 21.4 µM in the experiment on SNB-19 CNS; 16.2 µM in the experiment on UACC-62 melanoma; 10.1 µM with U251 CNS; 16.3 µM with BT-549 breast; 18.4 µM in the experiment on NCI/ADR-RES ovarian. Further, the TGI in the experiment with NCI-H522 lung was 18.6 µM; in the experiment with IGROV1 ovarian it was 16.8 µM; with SF-268 CNS it was 11.2 µM; with MOLT-4 leukemia it was more than 56.3 µM.
Consider `CN(CC(=O)O)c1ccc(/C=C/c2ccnc3ccccc23)cc1`, for which the TGI is 69.8 µM in the experiment on HCT-116 colon; more than 100 µM with SNB-19 CNS; 52.2 µM with UACC-62 melanoma; 75.2 µM in the experiment on U251 CNS; 70.4 µM in the experiment on BT-549 breast; more than 100 µM with NCI/ADR-RES ovarian. Also, the TGI in the experiment with NCI-H522 lung stood at 26.5 µM; in the experiment on IGROV1 ovarian it was 39.4 µM; with SF-268 CNS, 61.1 µM.
Regarding `CCN(CCNc1ccc(C)c2sc3cc(Cl)ccc3c(=O)c12)CC(C)O` (stereo not given), the GI50 in the experiment on HCT-116 colon was 1.66 µM; in the experiment on SNB-19 CNS, 1.65 µM; in the experiment on UACC-62 melanoma, 1.82 µM; in the experiment with U251 CNS it was 1.94 µM; in the experiment on BT-549 breast it was 2.71 µM; in the experiment with NCI/ADR-RES ovarian it was 2.07 µM. Besides, the GI50 with IGROV1 ovarian was 1.25 µM; in the experiment with SF-268 CNS it was 3.29 µM; in the experiment on MOLT-4 leukemia, 1.62 µM. Moreover, the TGI in the experiment with HCT-116 colon stood at 3.02 µM; in the experiment with SNB-19 CNS it was 3.66 µM; with UACC-62 melanoma, 3.44 µM; in the experiment with U251 CNS, 4.24 µM; in the experiment on BT-549 breast, 10.1 µM; in the experiment with NCI/ADR-RES ovarian, 4.08 µM. In addition, the results for the TGI with IGROV1 ovarian, in the experiment on SF-268 CNS and with MOLT-4 leukemia were 2.78 µM, 16 µM and 3.49 µM, respectively.
For the compound `O=C1/C(=C/c2ccc3c(c2)OCO3)CCC1CN1CCOCC1` (stereo not given), the TGI in the experiment on HCT-116 colon amounted to 14.5 µM; in the experiment on SNB-19 CNS, 31.2 µM; in the experiment on UACC-62 melanoma it was 20.5 µM; with U251 CNS, 14.3 µM; with BT-549 breast, 42.1 µM; in the experiment with NCI-H522 lung, 2.78 µM. In addition, the TGI in the experiment on IGROV1 ovarian came to 40.1 µM; with SF-268 CNS it was 28.8 µM; with MOLT-4 leukemia, 9.46 µM.
